Patent US8877748B2, “Heterocyclic fused anthraquinone derivatives, manufacturing method and pharmaceutical composition using thereof” (National Defense Medical Center, priority 2012, dated 2014)
Where two headings read alike, the source gives them in different places.

Tests used:
DU145 = experiment: NCI one-dose screening, prostate cancer DU145; assay type: cell-based, human; settings: DU145, 10 μM
OVCAR-5 = experiment: NCI one-dose screening, ovarian cancer OVCAR-5; assay type: cell-based, human; settings: OVCAR-5, 10 μM
EKVX = experiment: NCI one-dose screening, non-small cell lung cancer EKVX; assay type: cell-based, human; settings: EKVX
UACC-257 = experiment: NCI one-dose screening, melanoma UACC-257; assay type: cell-based, human; settings: UACC-257, 10 μM
A549/ATCC = experiment: NCI one-dose screening, non-small cell lung cancer A549/ATCC; assay type: cell-based, human; settings: A549/ATCC
HS 578-T = experiment: NCI one-dose screening, breast cancer HS 578-T; assay type: cell-based, human
HT29 = experiment: NCI one-dose screening, colon cancer HT29; assay type: cell-based, human; settings: HT29, 10 μM
OVCAR-4 = experiment: NCI one-dose screening, ovarian cancer OVCAR-4; assay type: cell-based, human; settings: OVCAR-4, 10 μM
SN12C = experiment: NCI one-dose screening, renal cancer SN12C; assay type: cell-based, human; settings: SN12C
786-O = experiment: NCI one-dose screening, renal cancer 786-O; assay type: cell-based, human; settings: 786-0, 10 μM
MDA-MB-231/ATCC = experiment: NCI one-dose screening, breast cancer MDA-MB-231/ATCC; assay type: cell-based, human; settings: MDA-MB-231/ATCC
MCF7 = experiment: NCI one-dose screening, breast cancer MCF7; assay type: cell-based, human; settings: MCF7, 10 μM
CAKI-1 = experiment: NCI one-dose screening, renal cancer CAKI-1; assay type: cell-based, human; settings: CAKI-1, 10 μM
human tumor cell lines = experiment: NCI one-dose screening, mean, delta and range of growth percent over all cell lines tested; assay type: cell-based; settings: for Growth Percent (10 μM), Delta: Delta over all cell lines tested; for Growth Percent (10 μM), Mean: Mean over all cell lines tested; for Growth Percent (10 μM), Range: Range over all cell lines tested
COLO 205 = experiment: NCI one-dose screening, colon cancer COLO 205; assay type: cell-based, human; settings: COLO 205, 10 μM
SR = experiment: NCI one-dose screening, leukemia SR; assay type: cell-based, human; settings: SR
SK-MEL-2 = experiment: NCI one-dose screening, melanoma SK-MEL-2; assay type: cell-based, human; settings: SK-MEL-2, 10 μM
UO-31 = experiment: NCI one-dose screening, renal cancer UO-31; assay type: cell-based, human; settings: UO-31, 10 μM
ACHN = experiment: NCI one-dose screening, renal cancer ACHN; assay type: cell-based, human; settings: ACHN
SF-268 = experiment: NCI one-dose screening, CNS cancer SF-268; assay type: cell-based, human; settings: SF-268, 10 μM
MALME-3M = experiment: NCI one-dose screening, melanoma MALME-3M; assay type: cell-based, human; settings: MALME-3M
NCI-H460 = experiment: NCI one-dose screening, non-small cell lung cancer NCI-H460; assay type: cell-based, human; settings: NCI-H460, 10 μM
MDA, -MB-435 = experiment: NCI one-dose screening, breast cancer MDA, -MB-435; assay type: cell-based, human; settings: Melanoma, MDA-MB-435, 10 μM
OVCAR-3 = experiment: NCI one-dose screening, ovarian cancer OVCAR-3; assay type: cell-based, human; settings: OVCAR-3, 10 μM
KM12 = experiment: NCI one-dose screening, colon cancer KM12; assay type: cell-based, human; settings: KM12, 10 μM
UACC-62 = experiment: NCI one-dose screening, melanoma UACC-62; assay type: cell-based, human; settings: UACC-62, 10 μM
MDA-MB-468 = experiment: NCI one-dose screening, breast cancer MDA-MB-468; assay type: cell-based, human; settings: MDA-MB-468, 10 μM
OVCAR-8 = experiment: NCI one-dose screening, ovarian cancer OVCAR-8; assay type: cell-based, human; settings: OVCAR-8, 10 μM
HOP-62 = experiment: NCI one-dose screening, non-small cell lung cancer HOP-62; assay type: cell-based, human; settings: HOP-62, 10 μM
SNB-75 = experiment: NCI one-dose screening, CNS cancer SNB-75; assay type: cell-based, human; settings: SNB-75, 10 μM
HCT-15 = experiment: NCI one-dose screening, colon cancer HCT-15; assay type: cell-based, human; settings: HCT-15, 10 μM
T-47D = experiment: NCI one-dose screening, breast cancer T-47D; assay type: cell-based, human; settings: T-47D
NCI-H226 = experiment: NCI one-dose screening, non-small cell lung cancer NCI-H226; assay type: cell-based, human; settings: NCI-H226, 10 μM
SNB-19 = experiment: NCI one-dose screening, CNS cancer SNB-19; assay type: cell-based, human; settings: SNB-19, 10 μM
MOLT-4 = experiment: NCI one-dose screening, leukemia MOLT-4; assay type: cell-based, human; settings: MOLT-4, 10 μM
SK-MEL-5 = experiment: NCI one-dose screening, melanoma SK-MEL-5; assay type: cell-based, human; settings: SK-MEL-5, 10 μM
[1] = tested on: PC-3 prostate cancer cell line; experiment: SRB assay cell viability, PC-3 prostate cancer cell line; assay type: cell-based, human; settings: PC-3 prostate cancer cell line, Table II prints no unit, μM printed, read-out: SRB assay: 50% inhibition of cancer cell proliferation of sample concentration (IC50) of PC-3 prostate cancer cell line
K562cell line = experiment: NCI one-dose screening, leukemia K562; assay type: cell-based, human; settings: K562, 10 μM
IGROV1 = experiment: NCI one-dose screening, ovarian cancer IGROV1; assay type: cell-based, human; settings: IGROV1, 10 μM
HCT-116 = experiment: NCI one-dose screening, colon cancer HCT-116; assay type: cell-based, human; settings: HCT-116, 10 μM
TK-10 = experiment: NCI one-dose screening, renal cancer TK-10; assay type: cell-based, human; settings: TK-10, 10 μM
LOX IMVI = experiment: NCI one-dose screening, melanoma LOX IMVI; assay type: cell-based, human; settings: LOX IMVI
SK-MEL-28 = experiment: NCI one-dose screening, melanoma SK-MEL-28; assay type: cell-based, human; settings: SK-MEL-28, 10 μM

Question: With `CC(C)Sc1cc2c(c3nsnc13)C(=O)c1ccccc1C2=O` [C18, 4-(isopropylthio)anthra[2,1-c][1,2,5] thiadiazol-6,11-dione] as the molecule, how does the “Growth Percent (10 μM)” value (DU145) read?
Answer: 6.66%

Question: And the “Growth Percent (10 μM)” value (OVCAR-5)?
Answer: −27.85%

Question: What about the “Growth Percent (10 μM)” value (EKVX) of the same molecule?
Answer: −6.58%

Question: What about the “Growth Percent (10 μM)” value (UACC-257) of the same molecule?
Answer: −91.69%

Question: What about the “Growth Percent (10 μM)” value (A549/ATCC) of the same molecule?
Answer: −8.14%

Question: What about the “Growth Percent (10 μM)” value (HS 578-T; Breast cancer, HS 578T, 10 μM) of the same molecule?
Answer: −9.16%

Question: What about the “Growth Percent (10 μM)” value (HT29) of the same molecule?
Answer: 48.08%

Question: And the “Growth Percent (10 μM)” value (OVCAR-4)?
Answer: −100.00%

Question: What about the “Growth Percent (10 μM)” value (SN12C) of the same molecule?
Answer: −28.62%

Question: What about the “Growth Percent (10 μM)” value (786-O) of the same molecule?
Answer: 12.37%

Question: And the “Growth Percent (10 μM)” value (MDA-MB-231/ATCC)?
Answer: −35.94%

Question: What about the “Growth Percent (10 μM)” value (MCF7) of the same molecule?
Answer: −68.82%

Question: What about the “Growth Percent (10 μM)” value (CAKI-1) of the same molecule?
Answer: −5.68%

Question: What about the “Growth Percent (10 μM), Delta” value (human tumor cell lines) of the same molecule?
Answer: 78.36%

Question: And the “Growth Percent (10 μM), Mean” value (human tumor cell lines)?
Answer: −21.64%

Question: What about the “Growth Percent (10 μM), Range” value (human tumor cell lines) of the same molecule?
Answer: 202.47%

Question: What about the “Growth Percent (10 μM)” value (COLO 205) of the same molecule?
Answer: 102.47%

Question: And the “Growth Percent (10 μM)” value (SR)?
Answer: −47.97%

Question: What about the “Growth Percent (10 μM)” value (SK-MEL-2) of the same molecule?
Answer: −55.62%

Question: And the “Growth Percent (10 μM)” value (UO-31)?
Answer: −28.43%

Question: And the “Growth Percent (10 μM)” value (ACHN)?
Answer: 0.80%

Question: What about the “Growth Percent (10 μM)” value (SF-268) of the same molecule?
Answer: 7.06%

Question: And the “Growth Percent (10 μM)” value (MALME-3M)?
Answer: −86.04%

Question: And the “Growth Percent (10 μM)” value (NCI-H460)?
Answer: 4.92%

Question: What about the “Growth Percent (10 μM)” value (MDA, -MB-435) of the same molecule?
Answer: −79.28%

Question: And the “Growth Percent (10 μM)” value (OVCAR-3)?
Answer: −60.32%

Question: And the “Growth Percent (10 μM)” value (KM12)?
Answer: 19.33%

Question: And the “Growth Percent (10 μM)” value (UACC-62)?
Answer: −57.09%

Question: What about the “Growth Percent (10 μM)” value (MDA-MB-468) of the same molecule?
Answer: −78.76%

Question: What about the “Growth Percent (10 μM)” value (OVCAR-8) of the same molecule?
Answer: −22.64%

Question: And the “Growth Percent (10 μM)” value (HOP-62)?
Answer: 13.18%

Question: What about the “Growth Percent (10 μM)” value (SNB-75) of the same molecule?
Answer: 9.12%

Question: And the “Growth Percent (10 μM)” value (HCT-15)?
Answer: 15.31%

Question: And the “Growth Percent (10 μM)” value (T-47D)?
Answer: −24.37%

Question: What about the “Growth Percent (10 μM)” value (NCI-H226) of the same molecule?
Answer: 10.21%

Question: What about the “Growth Percent (10 μM)” value (SNB-19) of the same molecule?
Answer: 21.85%

Question: What about the “Growth Percent (10 μM)” value (MOLT-4) of the same molecule?
Answer: −54.56%

Question: And the “Growth Percent (10 μM)” value (SK-MEL-5)?
Answer: −99.20%

Question: What about the IC50 ([1]; Homo sapiens) of the same molecule?
Answer: 1.15 µM

Question: And the “Growth Percent (10 μM)” value (K562cell line)?
Answer: −26.17%

Question: What about the “Growth Percent (10 μM)” value (IGROV1) of the same molecule?
Answer: −32.91%

Question: And the “Growth Percent (10 μM)” value (HCT-116)?
Answer: −36.70%

Question: What about the “Growth Percent (10 μM)” value (TK-10) of the same molecule?
Answer: 30.33%

Question: And the “Growth Percent (10 μM)” value (LOX IMVI)?
Answer: −21.59%

Question: What about the “Growth Percent (10 μM)” value (SK-MEL-28) of the same molecule?
Answer: −8.32%

Question: Which results are given for `CN(C)CCNc1cc2c(c3nsnc13)C(=O)c1ccccc1C2=O` [C8]?
Answer: Growth Percent (10 μM) (DU145): −95.45%; Growth Percent (10 μM) (OVCAR-5): −76.97%; Growth Percent (10 μM) (EKVX): −25.35%; Growth Percent (10 μM) (UACC-257): −88.80%; Growth Percent (10 μM) (A549/ATCC): −60.09%; Growth Percent (10 μM) (HS 578-T): 4.32%; Growth Percent (10 μM) (HT29): −45.50%; Growth Percent (10 μM) (OVCAR-4): −71.27%; Growth Percent (10 μM) (SN12C): −95.78%; Growth Percent (10 μM) (786-O): −14.05%; Growth Percent (10 μM) (MDA-MB-231/ATCC): −2.96%; Growth Percent (10 μM) (MCF7): −49.41%; Growth Percent (10 μM) (CAKI-1): 6.88%; Growth Percent (10 μM), Delta (human tumor cell lines): 49.51%; Growth Percent (10 μM), Mean (human tumor cell lines): −49.52%; Growth Percent (10 μM), Range (human tumor cell lines): 112.33%; Growth Percent (10 μM) (COLO 205): −99.38%; Growth Percent (10 μM) (SR): −49.98%; Growth Percent (10 μM) (SK-MEL-2): −66.52%; Growth Percent (10 μM) (UO-31): −28.47%; Growth Percent (10 μM) (ACHN): −22.86%; Growth Percent (10 μM) (SF-268): −14.54%; Growth Percent (10 μM) (MALME-3M): −85.22%; Growth Percent (10 μM) (NCI-H460): −38.31%; Growth Percent (10 μM) (MDA, -MB-435): −58.82%; Growth Percent (10 μM) (OVCAR-3): −38.62%; Growth Percent (10 μM) (KM12): −21.66%; Growth Percent (10 μM) (UACC-62): −47.85%; Growth Percent (10 μM) (MDA-MB-468): −62.81%; Growth Percent (10 μM) (OVCAR-8): −28.91%; Growth Percent (10 μM) (HOP-62): −67.97%; Growth Percent (10 μM) (SNB-75): −73.34%; Growth Percent (10 μM) (HCT-15): −60.44%; Growth Percent (10 μM) (T-47D): 12.90%; Growth Percent (10 μM) (NCI-H226): 69.78%; Growth Percent (10 μM) (SNB-19): −77.31%; Growth Percent (10 μM) (MOLT-4): −41.28%; Growth Percent (10 μM) (SK-MEL-5): −98.79%; IC50 [1]: 0.4 µM; Growth Percent (10 μM) (K562cell line): −24.44%; Growth Percent (10 μM) (IGROV1): −28.40%; Growth Percent (10 μM) (HCT-116): −2.07%; Growth Percent (10 μM) (TK-10): −35.59%; Growth Percent (10 μM) (LOX IMVI): −90.91%; Growth Percent (10 μM) (SK-MEL-28): −50.60%
